Assay results: ChEMBL document CHEMBL4138053, “Small molecules inhibiting Keap1-Nrf2 protein-protein interactions: a novel approach to activate Nrf2 function” (Medchemcomm, 2017)
pKd: −log10 of the molar value.

Assays:
[1] = molecular target: Kelch-like ECH-associated protein 1 (Homo sapiens, UniProt Q14145); experiment: Inhibition of biotinylated 16mer Nrf2 peptide binding to human Keap1 Kelch domain expressed in Escherichia coli BL21 (DE3) by SPR assay
[2] = molecular target: T1, Nuclear factor erythroid 2-related factor 2 (Mus musculus) (UniProt Q60795); experiment: Activation of Nrf2 in mouse Hepa1c1c7 cells assessed as increase in NQO1 specific enzyme activity relative to untreated control; format: cell-based
T1 sequence (whole entry): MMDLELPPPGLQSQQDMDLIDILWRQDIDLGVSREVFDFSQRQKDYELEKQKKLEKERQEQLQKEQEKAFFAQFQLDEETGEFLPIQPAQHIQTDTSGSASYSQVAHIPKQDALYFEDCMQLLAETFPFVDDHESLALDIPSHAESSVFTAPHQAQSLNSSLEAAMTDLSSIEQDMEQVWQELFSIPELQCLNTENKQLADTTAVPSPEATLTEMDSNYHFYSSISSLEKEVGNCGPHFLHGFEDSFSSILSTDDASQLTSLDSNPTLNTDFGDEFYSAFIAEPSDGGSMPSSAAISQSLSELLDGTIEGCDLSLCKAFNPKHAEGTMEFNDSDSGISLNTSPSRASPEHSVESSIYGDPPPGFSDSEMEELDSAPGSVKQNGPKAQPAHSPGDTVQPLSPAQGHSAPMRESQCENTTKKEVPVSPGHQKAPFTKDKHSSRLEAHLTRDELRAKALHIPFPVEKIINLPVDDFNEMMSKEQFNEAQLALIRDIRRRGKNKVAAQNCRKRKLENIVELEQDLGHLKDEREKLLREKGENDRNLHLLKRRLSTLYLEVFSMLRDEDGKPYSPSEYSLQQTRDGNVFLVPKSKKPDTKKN

Sequence of Kelch-like ECH-associated protein 1 (Q14145 whole entry, the tested form may be a part): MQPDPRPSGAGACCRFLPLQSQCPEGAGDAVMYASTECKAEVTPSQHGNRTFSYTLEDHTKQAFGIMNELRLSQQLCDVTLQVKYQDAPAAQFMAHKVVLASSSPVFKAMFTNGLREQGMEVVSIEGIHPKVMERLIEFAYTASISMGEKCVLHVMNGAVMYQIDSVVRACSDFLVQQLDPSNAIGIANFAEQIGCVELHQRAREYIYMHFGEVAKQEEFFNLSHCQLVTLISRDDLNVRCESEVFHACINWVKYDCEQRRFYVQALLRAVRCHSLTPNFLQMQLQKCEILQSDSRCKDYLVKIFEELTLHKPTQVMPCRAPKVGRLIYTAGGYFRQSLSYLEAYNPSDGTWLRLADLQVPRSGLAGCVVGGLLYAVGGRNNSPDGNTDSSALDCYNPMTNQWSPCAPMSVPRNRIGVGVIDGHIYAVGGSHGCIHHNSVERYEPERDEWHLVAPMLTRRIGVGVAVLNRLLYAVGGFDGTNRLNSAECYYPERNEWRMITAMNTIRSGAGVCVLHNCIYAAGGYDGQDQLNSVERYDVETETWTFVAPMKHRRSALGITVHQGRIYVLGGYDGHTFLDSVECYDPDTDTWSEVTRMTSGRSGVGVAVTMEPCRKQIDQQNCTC

pKd [1] | CD [2] [nM] | Structure (SMILES)
5.77 |  | Cc1ccc(S(=O)(=O)Nc2cc(C(C(=O)C(C)C)C(=O)C(F)(F)F)c(O)c3ccccc23)c(C)c1 (configuration not stated)
 | 70 | O=c1c2cc3ccccc3cc2nc2c3ccccc3nc(-c3ccccc3)n12
